The values below come from patent US10865417B2, “Yeast synthetic biology platform for identifying shikimate pathway enzyme inhibitors” (New York University, priority 2018, dated 2020).

Experiment [1] has as its system Staphylococcus aureus pathway. As to the kind of experiment: Yeast avatar glyphosate sensitivity assay, Staphylococcus aureus pathway. The note with it: aro1Δ yeast carrying Staphylococcus aureus pathway, 0.25% glyphosate, FIG. 3. The class given is cell-based.
Experiment [2] concerns step 6 (EPSPS) of Neisseria gonorrhoeae. As to the kind of experiment: N−1 assay for molecular target of glyphosate, [Sau HGC] lacking step 6. In kind it is cell-based, yeast (aro1Δ) carrying Neisseria gonorrhoeae pathway. The note with it: aro1Δ [Ngo] yeast with [Sau HGC] lacking step 6, −AAA, 0.25% glyphosate. An excerpt:
(§1) FIG. 6. Molecular target identification of the shikimate pathway inhibitor glyphosate in the yeast avatar system. Yeast cells lacking ARO1 (aro1Δ) carrying the Neisseria gonorrhoeae pathway ([Ngo]) or an empty vector (empty) were co-transformed with a full-length Staphylococcus aureus pathways ([Sau HGC]), one of five derivatives of [Sau HGC] lacking a single enzymatic activity (step 2, step 3, step 4, step 5, step 6), or an empty vector (empty) lacking all shikimate pathway enzymatic activities. Cells were plated on replete medium including aromatic amino acids (+AAA) or selective medium lacking aromatic amino acids (−AAA). 0.25% glyphosate (vol/vol of a commercially available 41% solution of glyphosate) was added to the plates where indicated. Cell growth indicates complementation and absence of cell growth indicates no complementation.
(§2) As discussed above, five steps of the endogenous shikimate pathway are provided by a single gene, ARO1, which encodes a penta-functional protein (FIG. 1, 2). […] To distinguish between these possibilities and determine whether any of the heterologous enzymatic activities are functional in yeast, the “N−1” assay can be used. […] Each of the five strains can then be evaluated for complementation on medium lacking aromatic amino acids. […]

Experiment [3] deals with yeast avatars expressing heterologous shikimate pathways (EPSPS enzyme). As to the kind of experiment: Yeast avatar glyphosate sensitivity assay (panel of avatars). The class given is cell-based, Saccharomyces cerevisiae.
Experiment [4] addresses step 2 of the pathway, DHQS (Escherichia coli, UniProt P07639). The note with it: reference (25); cited from earlier work.
Experiment [5] has as its target T1, step 2 (DHQS) of Neisseria gonorrhoeae (Neisseria gonorrhoeae, UniProt Q5FAD4).
T1 construct: expressed in transfected cells; host or cells: Saccharomyces cerevisiae aro1Δ, co-transformed with [Sau HGC] lacking step 2
As to the kind of experiment: N−1 assay for molecular target of glyphosate, [Sau HGC] lacking step 2. The class given is cell-based. As to conditions: aro1Δ [Ngo] yeast with [Sau HGC] lacking step 2, −AAA, 0.25% glyphosate.
Description: as §1, §2

Experiment [6] relates to Neisseria gonorrhoeae pathway. As to the kind of experiment: Yeast avatar glyphosate sensitivity assay, Neisseria gonorrhoeae pathway. In kind it is cell-based. The note with it: aro1Δ yeast carrying Neisseria gonorrhoeae pathway, 0.25% glyphosate, FIG. 3.

T1 sequence (Q5FAD4 whole entry): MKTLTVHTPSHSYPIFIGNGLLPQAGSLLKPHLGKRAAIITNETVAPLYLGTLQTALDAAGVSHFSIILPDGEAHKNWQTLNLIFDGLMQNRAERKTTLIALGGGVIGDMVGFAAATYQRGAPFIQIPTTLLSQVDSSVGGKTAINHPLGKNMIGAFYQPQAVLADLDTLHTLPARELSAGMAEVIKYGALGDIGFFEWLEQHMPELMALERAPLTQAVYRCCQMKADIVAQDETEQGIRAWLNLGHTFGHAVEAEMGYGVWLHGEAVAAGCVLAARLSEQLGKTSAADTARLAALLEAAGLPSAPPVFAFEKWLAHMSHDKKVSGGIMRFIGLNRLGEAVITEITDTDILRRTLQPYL
step 2 of the pathway, DHQS, sequence (P07639 whole entry): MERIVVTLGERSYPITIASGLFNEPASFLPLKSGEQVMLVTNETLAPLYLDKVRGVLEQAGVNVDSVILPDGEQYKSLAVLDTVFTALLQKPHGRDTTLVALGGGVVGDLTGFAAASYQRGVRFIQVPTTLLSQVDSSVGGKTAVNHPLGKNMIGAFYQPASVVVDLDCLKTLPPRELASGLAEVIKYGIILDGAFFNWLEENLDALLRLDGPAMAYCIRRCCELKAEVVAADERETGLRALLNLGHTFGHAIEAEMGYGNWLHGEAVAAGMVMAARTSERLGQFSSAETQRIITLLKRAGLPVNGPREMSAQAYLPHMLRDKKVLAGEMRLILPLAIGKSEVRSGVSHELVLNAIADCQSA

`O=C(O)CNCP(=O)(O)O` [glyphosate]: the “growth of avatar on glyphosate (sensitivity/resistance)” value in experiment [1] is listed as “resistant”; in experiment [6] it was “demonstrated sensitivity”. Moreover, the cell growth result in experiment [2] and in experiment [5] was “completely inhibited” each time. Further, the “sensitivity of enzymatic activity to glyphosate” value in experiment [2] and in experiment [5] was “sensitive” in each case. Moreover, the “ability of yeast avatars to grow on glyphosate” value in experiment [3] (0.25% glyphosate (vol/vol of 41% solution), medium lacking aromatic amino acids, 6 days at 30° C., a number of avatars) is reported as “sensitive”. Further, the “glyphosate sensitivity upon supplementation of aromatic amino acids” value in experiment [3] (0.25% glyphosate, plus tryptophan, phenylalanine and tyrosine) was “glyphosate sensitivity was overcome”. Also, the “inhibition of DHQS” value in experiment [4] is given as “inhibits”.
